This passage reports EC50 results from patent publication US20200071327A1, “Prodrugs for the Treatment of Disease” (Oppilan Pharma Ltd., priority 2017, published 2020).

A value given as a limit tells only on which side of the number the result lay.

This assay deals with T1, full-length human S1P1 (Homo sapiens, UniProt P21453).
T1 construct: CHO-K1 Gαqi5 cells expression full-length human S1P1; expressed in transfected cells; host or cells: CHO-K1 Gαqi5 cells (membrane preparation)
Description: GTPγS binding assay (scintillation proximity assay) on S1P1 membranes. Particulars: membranes from CHO-K1 Gαqi5 cells expressing full-length human S1P1; GTPγ35S; 60 minutes incubation. In kind it is biochemical. On the procedure:
S1P1 membrane is prepared from CHO-K1 Gαqi5 cells expression full-length human S1P1. Scintillation proximity assay (SPA) is performed by incubating membranes, GTPγ^35S, and compound 11 at various concentrations for 60 minutes. Wheat germ agglutinin-coated SPA beads are added and incubated for 60 minutes before centrifugation and scintillation counting.
(In general: Binding of GTPγS marks nucleotide exchange on a G protein.)

T1 sequence (P21453 whole entry): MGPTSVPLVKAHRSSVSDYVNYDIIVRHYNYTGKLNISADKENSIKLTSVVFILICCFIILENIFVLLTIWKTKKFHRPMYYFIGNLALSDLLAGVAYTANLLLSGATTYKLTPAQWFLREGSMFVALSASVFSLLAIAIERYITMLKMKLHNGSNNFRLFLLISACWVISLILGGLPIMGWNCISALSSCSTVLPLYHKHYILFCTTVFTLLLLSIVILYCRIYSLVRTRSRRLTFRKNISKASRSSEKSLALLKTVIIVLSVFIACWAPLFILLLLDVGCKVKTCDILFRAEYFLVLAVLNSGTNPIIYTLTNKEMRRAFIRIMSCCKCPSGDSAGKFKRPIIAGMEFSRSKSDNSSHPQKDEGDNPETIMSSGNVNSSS

For `O=C1CC[C@@H](Oc2cc(Cl)c(-c3noc(-c4cn5cc(C(F)(F)F)cc(Cl)c5n4)n3)cc2Cl)CN1` [compound 11, (R)-5-(2,5-diehloro-4-(5-(8-chloro-6-(trifluoromethyl)imidazo[1,2-a]pyridin-2-yl)-1,2,4-oxadiazol-3-yl)phenoxy)piperidin-2-one], the EC50 (as a rule, the concentration at which the effect is half-maximal) was less than 1 µM.
